From patent US10902592B2, “Analysis of images of biological material” (Q-linea AB, priority 2016, dated 2021)

Key:
Format in all cases: cell-based
[1] = test system: E. coli; test: Microscopy of E. coli grown in presence of antibiotics (FIGS. 7a-d); settings: for morphological change of the pathogen: E. coli grown for three hours in presence of the antibiotic, microphotographs
Source text: (§1) FIGS. 7a to 7j show the effect of antibiotics on the morphology of various pathogens. The microphotographs in a) to d) show E. coli grown for three hours either a) in absence of any antibiotics, b) and c) in presence of the antibiotic ceftazidime in different concentrations, and d) or in presence of the antibiotic meropenem. It is clear that the morphological change is not only dependent on the type of antibiotics but is also dose dependent. […] The strain of E. coli shown in these Figures is meropenem sensitive. The microphotographs in e) to g) show P.aureginosa grown for three hours either e) in absence of any antibiotics, f) in presence of the antibiotic ceftazidime or g) in presence of the antibiotic meropenem. […] The P.aureginosa strain shown is meropenem sensitive. The microphotographs of h) to j) show P. mirabilis grown for three hours either h) in absence of any antibiotics, i) in presence of the antibiotic ceftazidime or j) in presence of the antibiotic meropenem. […] The P. mirabilis strain shown is meropenem sensitive.

[2] = test system: P.aureginosa; test: Microscopy of P.aureginosa grown in presence of antibiotics (FIGS. 7e-g); settings: for morphological change of the pathogen: P.aureginosa grown for three hours in presence of the antibiotic, microphotographs
Source text: as §1

[3] = test system: P. mirabilis; test: Microscopy of P. mirabilis grown in presence of antibiotics (FIGS. 7h-j); settings: for morphological change of the pathogen: P. mirabilis grown for three hours in presence of the antibiotic, microphotographs
Source text: as §1

CC(C)(O/N=C(\C(=O)N[C@@H]1C(=O)N2C(C(=O)[O-])=C(C[n+]3ccccc3)CS[C@H]12)c1csc(N)n1)C(=O)O [ceftazidime]
morphological change of the pathogen [1]: thread-like change in morphology
morphological change of the pathogen [2]: “cluster threads” instead of individual threads
morphological change of the pathogen [3]: a combination of “swelling” and threads

C[C@@H](O)[C@H]1C(=O)N2C(C(=O)O)=C(S[C@@H]3CN[C@H](C(=O)N(C)C)C3)[C@H](C)[C@H]12 [meropenem]
morphological change of the pathogen [1]: “swelling” of the pathogen
sensitivity of the strain shown to the antibiotic ([1]; E. coli strain shown in the Figures): sensitive
morphological change of the pathogen [2]: the same morphological change occurs
sensitivity of the strain shown to the antibiotic ([2]; P.aureginosa strain shown): sensitive
morphological change of the pathogen [3]: the same morphological change occurs
sensitivity of the strain shown to the antibiotic ([3]; P. mirabilis strain shown): sensitive
